Measured values taken from patent US8846951B2 (AbbVie Inc., priority 2009, dated 2014).
Entries after “also recorded” stand apart in the source; their conditions may differ.

Key:
h-5-HT6 receptor = target: T1, h-5-HT6 receptor (Homo sapiens, UniProt P50406); assay: Human 5-HT6 receptor radioligand binding assay (HEK293 membranes, [3H]-LSD); settings: HEK293 membranes expressing h-5-HT6 receptor, 1 nM [3H]-LSD; geometrical mean; read-out: Ki (5-HT6 Agonist Site Radioligand Binding)
T1 construct: expressed in transfected cells; host or cells: HEK293 cells (membranes)
Description: (v) Human 5-HT6 Receptor Radioligand Binding Assay
Preparation of Membranes by Ultrasonic Treatment and Differential Centrifugation
Cells from stable clonal cell lines expressing the corresponding receptor (5-HT6) were washed with PBS (without Ca^++, Mg^++) and harvested in PBS with 0.02% EDTA. The cells were collected by centrifugation at 500 g for 10 minutes at 4° C., washed with PBS and centrifuged (500 g, 10 minutes at 4° C.). The pellets were stored at −80° C. until use. For membrane preparation, the thawed cell pellet was resuspended in ice-cold sucrose buffer (0.25 M sucrose, 10 mM HEPES (pH 7.4), 1 mM phenylmethylsulfonyl fluoride (PMSF) in DMSO, 5 μg/ml Pepstatin-A, 3 mM EDTA, 0.025% Bacitracin) and homogenized with a Branson Sonifier W-250 (Settings: Timer 4; Output Control 3; Duty Cycle constant; 2 to 3 cycles). Cell disruption was checked with the aid of a microscope. Remaining unbroken cells were pelleted at 1,000 g for 10 minutes at 4° C. The sucrose buffer supernatant was then centrifuged at 60,000 g for 1 hour at 4° C. (Beckman Ultracentrifuge XL 80). The pellet was resuspended in 30 mL of ice-cold Tris buffer (20 mM TRIS (pH 7.4), 5 μg/mL Pepstatin A, 0.1 mM PMSF, 3 mM EDTA) by pipetting through a 10 mL serological pipette and centrifuged for 1 hour at 4° C. at 60,000 g. A final resuspension was performed in a small volume of ice-cold Tris buffer (see above) by pressing through a serological pipette followed by ultrasonic treatment with a Branson Sonifier W-250 (Settings: Timer 1; Output Control 3; Duty Cycle constant; 1 cycle). Protein concentration was determined (BCA-Kit; Pierce) and aliquots stored at −80° C. or in liquid nitrogen for long-term storage.
Receptor Binding Experiments
All receptor binding experiments were carried out in the corresponding assay buffer in a total volume of 200 μL in the presence of various concentrations of test compound (10^−5 M to 10^−9 M, tenfold serial dilution, duplicate determinations). The assays were terminated by filtration on polyethylenimine (PEI 0.1% or 0.3%) presoaked Packard Unifilter Plates (GF/C or GF/B) with a Tomtec MachIII U 96 well-plate harvester. After the plates had been dried for 2 hours at 55° C. in a drying chamber scintillation cocktail (BetaPlate Scint; PerkinElmer) was added. Radioactivity was measured in a Microbeta Trilux two hours after the addition of the scintillation mixture.
5-HT6 Receptor Binding Assay
HEK293 cells stably expressing the h-5-HT6 receptor (NCBI Reference Sequence XM 001435) were cultured in RPMI1640 medium supplemented with 25 mM HEPES, 10% fetal calf serum and 1-2 mM glutamine. The membrane preparation was performed as described above. […] On the day of the assay, the membranes were thawed, diluted in assay buffer (50 mM Tris-HCl, 5 mM CaCl2, 0.1% ascorbic acid, 10 μM pargyline, pH 7.4) to a concentration of 8 μg protein/assay and homogenized by gentle vortexing. […] Non-specific binding was defined with 1 μM methiothepin. The binding reaction was carried out for 3.5 hours at room temperature. During the incubation, the plates were shaken on a plate shaker at 100 rpm and terminated by filtration on Packard Unifilter GF/C (0.1% PEI) plates, followed by 2 wash cycles with ice-cold 50 mM Tris-HCl, 5 mM CaCl2.
Data derived from liquid scintillation counting were analyzed by iterative non-linear regression analysis with the use of the Statistical Analysis System (SAS): a program similar to “LIGAND” as described by Munson and Rodbard (Anal. Biochem. 1980, 107, 220-239). Fitting was performed according to formulae described by Feldman (Anal. Biochem. 1972, 48, 317-338). IC50 and Ki values were expressed as geometrical mean.

5HT2C receptors [1] = target: T2, 5HT2C receptors (Homo sapiens, UniProt P28335); assay: Human 5-HT2C functional assay in CHO-K1 cells (96-well, calcium, FLIPR); assay type: cell-based; set-up: expressed in transfected cells; settings: 5-HT2c agonist activity, CHO-K1 cells stably transfected
T2 sequence (P28335 33-458): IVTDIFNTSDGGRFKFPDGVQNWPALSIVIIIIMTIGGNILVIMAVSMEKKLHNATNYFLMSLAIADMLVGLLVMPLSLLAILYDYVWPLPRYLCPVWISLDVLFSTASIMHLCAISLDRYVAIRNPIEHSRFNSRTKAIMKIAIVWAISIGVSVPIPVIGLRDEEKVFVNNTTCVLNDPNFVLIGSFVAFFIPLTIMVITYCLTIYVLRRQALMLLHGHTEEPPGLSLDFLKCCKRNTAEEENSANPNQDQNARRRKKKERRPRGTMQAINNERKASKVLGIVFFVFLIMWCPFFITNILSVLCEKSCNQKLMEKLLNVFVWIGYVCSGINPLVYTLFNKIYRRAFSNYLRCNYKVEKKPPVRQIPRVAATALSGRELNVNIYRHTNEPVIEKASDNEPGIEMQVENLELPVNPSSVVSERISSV
Description: (iv) Human 5-HT2C Functional Assay in CHO-K1 Cells
Functional activity was determined by testing the effect of the compounds on intracellular calcium levels in CHO-K1 cells stably transfected with the human 5-HT2C receptor. Cells were seeded into 96-well plates at 60,000 cells/well and grown overnight in tissue culture medium (UltraCHO™ (Lonza), containing 1% dFCS, 250 μg/mL Zeocin, 400 μg/mL Geneticin) at 37° C. and 5% CO2. Growth medium was replaced by medium without dFCS for overnight incubation. Cells were loaded with a fluorescent calcium-sensitive dye in the presence of probenicid according to the manufacturer's protocol (FLIPR Ca4 Assay kit, Molecular Devices). Serial compound dilutions (final concentrations 10^−10 to 10^−5 M) were added to the cells and the maximum calcium response was determined using a FLIPR instrument (Molecular Devices). Concentration-response curves were fitted using a four-parameter logistic equation (GraphPad Prism). The concentration at which the compound exerts half its maximal effect is named the ‘effective concentration 50’ or ‘EC50’ and is listed in Table 5.

[2] = target: T3, human serotonin 5-HT2c receptor (Homo sapiens, UniProt P28335); assay: Human 5-HT2C receptor radioligand binding assay (agonist site, [125I]DOI); settings: 5-HT2c agonist site; transfected CHO cell membranes; 0.2 nM [125I](±)DOI
T3 construct: expressed in transfected cells; host or cells: CHO cells (membrane homogenates)
T3 sequence (P28335 33-458): T2 sequence (P28335 33-458)
Description: (i) Human 5-HT2C Receptor Radioligand Binding Assay
Affinity of compounds for the agonist site of the […], receptor in transfected CHO cells was determined in a radioligand binding assay essentially as described by Bryant, H. U., et al., Life Sciences (1996) 59(15), 1259-1268.

5HT2B receptors = target: T4, 5HT2B receptors (Homo sapiens, UniProt P41595); assay: Human 5-HT2B functional high throughput screening assay in CHO-K1 cells (calcium flux); assay type: cell-based; settings: for Emax: CHO-K1; for EC50: EC50, 5-HT2B agonist activity, CHO-K1 cells, calcium flux
T4 construct: expressed in transfected cells; host or cells: CHO-K1 cells
How it was run: (§1)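 Agonism is measured as intracellular calcium increase in receptor-overexpressing CHO-K1 cells, read by FLIPR at 25 °C. Responses are expressed relative to serotonin, with EC50 and Emax derived from a 4-parameter logistic curve over 6 concentrations starting at 10 μM.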

[3] = test system: AMP- or PCP-induced hyperactivity; assay: Psychostimulant (AMP or PCP)-induced hyperlocomotion in mice; assay type: in vivo, mouse; settings: for spontaneous activity: after ip test compound, before psychostimulant; for AMP-induced hyperactivity: test compound ip 30 min before d-amphetamine 2.0 mg/kg sc
Excerpt: (x) Assessment of Effects on Psychostimulant-Induced Hyperlocomotion in Mice
In both humans and experimental animals amphetamine (AMP) profoundly affects motor activity, sensorimotor function, sleep, attention, aggressive and sexual behaviors, learning and memory, operant behaviors, appetite and food intake. In addition, amphetamine induces psychotic reactions in normal individuals and exacerbates symptoms of schizophrenia in patients. In experimental animals several distinct behaviors are considered to be correlates of amphetamine psychosis. For example, amphetamine-induced hyperactivity in rodents is believed to model the psychotic symptoms of schizophrenia. Reversal of these behaviors is used to predict potential antipsychotic activity of drugs in pre-clinical studies.
In humans, phencyclidine (PCP) is known to produce a syndrome of behavioral effects which have many characteristics in common with schizophrenia. Therefore, antagonism of PCP effects might be evidence for antipsychotic efficacy of a compound.
Male NMRI mice (5-week old, Janvier, France) or C57BL/6J mice (6-week old, Janvier, France) were group housed and allowed ad-libitum access to food and water. A 12 hour light/dark cycle was imposed with lights-on period between 0530 and 1730 hours. All testing occurred between 700 and 1300 hours. All procedures were approved by Abbott Institutional Animal Care and Use Committee (USA) or Animal Welfare Officer (Germany) and were conducted in accordance with the National Institutes of Health Guide for Care and Use of Laboratory Animals guidelines and applicable national laws in the facilities accredited by the Association for the Assessment and Accreditation of Laboratory Animal Care.
On the day of experiment, animals were brought from the animal facility into the experimental room and were allowed to acclimatize for at least 30 minutes. Animals were then placed in the test cages for a habituation period of 60 minutes. The animals were then injected ip with the test compound and returned to the test cage. 30 Minutes later the mice were injected with d-amphetamine (2.0 mg/kg, AMP, Sigma, #A5880, sc) or phencyclidine (2.0 mg/kg, PCP, Sigma, #P3029, sc) Sigma, and returned to the test cages for 90 minutes. Each treatment group consisted of 8-10 animals. The data was acquired by Cage rack Photobeam system (SDI, San Diego Instruments, CA). The analyzed data were: fine movements, ambulations and total movements (fine+ambulations). Data was subjected to one- or two-way distribution-free ANOVA followed by Dunnett's and Tukey's post hoc tests.

5HT2C receptors [4] = target: T2, 5HT2C receptors; assay: Human 5-HT2C functional assay in 1321N1 cells (intracellular calcium, FLIPR); assay type: cell-based; set-up: expressed in transfected cells; host or cells: 1321N1 cells; settings: 5-HT2c agonist activity, maximum calcium response
How it was run: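 1321N1 cells stably expressing human 5-HT2C were serum-starved overnight and loaded with Fluo-4 AM and 1% probenecid. Compounds (10^−10 to 10^−5 M) were tested alone or with 10^−9 M serotonin, and peak calcium was read by FLIPR. EC50 from four-parameter logistic fit.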

5HT2C receptors [5] = target: T2, 5HT2C receptors; assay: Human 5-HT2C functional high throughput screening assay in CHO-K1 cells (calcium flux); assay type: cell-based; set-up: expressed in transfected cells; host or cells: CHO-K1 cells; settings: for Emax: CHO-K1, 5-HT2C, maximum functional response as percentage relative to the effect of serotonin; for EC50: EC50, 5-HT2C agonist activity, CHO-K1 cells, calcium flux
How it was run: as §1

T4 sequence (P41595 whole entry): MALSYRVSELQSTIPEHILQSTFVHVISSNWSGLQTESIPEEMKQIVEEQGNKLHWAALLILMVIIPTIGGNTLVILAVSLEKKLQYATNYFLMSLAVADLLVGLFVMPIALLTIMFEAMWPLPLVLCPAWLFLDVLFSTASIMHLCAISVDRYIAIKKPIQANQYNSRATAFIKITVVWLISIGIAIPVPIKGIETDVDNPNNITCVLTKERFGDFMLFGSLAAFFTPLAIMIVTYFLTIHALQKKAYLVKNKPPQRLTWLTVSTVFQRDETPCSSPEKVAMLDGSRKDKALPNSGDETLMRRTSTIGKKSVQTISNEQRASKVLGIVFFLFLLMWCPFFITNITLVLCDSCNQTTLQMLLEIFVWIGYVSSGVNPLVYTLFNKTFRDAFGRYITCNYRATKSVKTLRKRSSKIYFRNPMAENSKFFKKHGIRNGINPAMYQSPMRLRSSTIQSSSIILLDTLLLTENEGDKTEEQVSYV
T1 sequence (P50406 whole entry): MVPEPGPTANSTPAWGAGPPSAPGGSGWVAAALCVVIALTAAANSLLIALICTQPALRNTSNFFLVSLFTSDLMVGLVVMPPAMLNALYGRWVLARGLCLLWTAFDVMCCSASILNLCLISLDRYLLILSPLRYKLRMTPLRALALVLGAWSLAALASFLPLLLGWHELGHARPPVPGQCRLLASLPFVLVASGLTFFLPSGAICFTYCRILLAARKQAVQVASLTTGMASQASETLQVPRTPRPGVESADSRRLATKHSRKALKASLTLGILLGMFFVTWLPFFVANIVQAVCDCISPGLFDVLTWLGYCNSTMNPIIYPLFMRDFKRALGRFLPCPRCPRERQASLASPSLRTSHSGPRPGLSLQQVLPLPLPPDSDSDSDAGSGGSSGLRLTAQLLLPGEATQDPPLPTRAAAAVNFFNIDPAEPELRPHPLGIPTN

Row | Ki (h-5-HT6 receptor) [nM] | EC50 (5HT2C receptors [1]) [µM] | SMILES | Ki [2] [nM] | Emax (5HT2B receptors) [%] | EC50 (5HT2B receptors) [nM] | spontaneous activity [3] | PCP-induced hyperactivity ([3]; test compound ip 30 min before PCP 2.0 mg/kg sc) | EC50 (5HT2C receptors [4]) [nM] | Emax (5HT2C receptors [5]) [%] | EC50 (5HT2C receptors [5]) [nM] | AMP-induced hyperactivity [3]
1 | 14.3 | > 1 | COc1ccc(CN2C[C@H]3CN(S(=O)(=O)c4cccc(F)c4)Cc4ccccc4[C@@H]3C2)cc1 (relative stereo) [Example 73, Trans-5-(3-fluorophenylsulfonyl)-2-(4-methoxybenzyl)-1,2,3,3a,4,5,6,10b-octahydrobenzo[c]pyrrolo[3,4-e]azepine] | – | – | – | – | – | – | – | – | –
2 | 9.81 | > 10 | O=S(=O)(c1cccc(F)c1)N1Cc2ccccc2[C@@H]2CN(Cc3ccc(F)cc3)C[C@H]2C1 (relative stereo) [Example 74, Trans-2-(4-fluorobenzyl)-5-(3-fluorophenylsulfonyl)-1,2,3,3a,4,5,6,10b-octahydrobenzo[c]pyrrolo[3,4-e]azepine] | – | – | – | – | – | – | – | – | –
3 | – | – | O=C1NC[C@H]2CNC[C@@H]2c2ccccc21 [Example 44, (3aR,10bS)-1,2,3,3a,4,5-Hexahydrobenzo[c]pyrrolo[3,4-e]azepin-6(10bH)-one] | 9.5 | 100 | 500 | without affecting spontaneous activity | attenuated PCP-induced hyperactivity in mice significantly and in a dose dependent manner; also recorded: attenuating the affect of phencyclidine (PCP) | 3.02 | 100 | 1 | –
4 | – | – | O=C1NC[C@H]2CNC[C@@H]2c2c(F)cc(F)cc21 [Example 106, (3aR,10bS)-8,10-Difluoro-1,2,3,3a,4,5-hexahydrobenzo[c]pyrrolo[3,4-e]azepin-6(10bH)-one] | – | 95 | 100 | without affecting spontaneous activity | – | – | > 120 | 0.4 | modestly attenuated AMP-induced hyperactivity in mice in a dose dependent manner; also recorded: attenuating the affect of d-amphetamine (AMP)
5 | – | – | CN1C[C@H]2CNC[C@@H]2c2ccc(F)cc2C1=O [Example 225, (3aR,10bS)-8-Fluoro-5-methyl-1,2,3,3a,4,5-hexahydrobenzo[c]pyrrolo[3,4-e]azepin-6(10bH)-one] | – | 110 | 2000 | without affecting spontaneous activity | – | – | > 120 | 20 | modestly attenuated AMP-induced hyperactivity in mice; also recorded: attenuating the affect of d-amphetamine (AMP)
